Results taken from PubChem BioAssay (NCI).
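The compound was tested at five concentrations on cells cultured in 96-well plates, with a 48-hour exposure period. GI50 = concentration required for 50% inhibition of growth. Definition used: TGI = concentration required for complete inhibition of growth.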

How the values were obtained:
Test in all cases: DTP human tumour cell line panel, 48 h
SF-268 CNS = test system: SF-268 CNS
SNB-19 CNS = test system: SNB-19 CNS
SF-295 CNS = test system: SF-295 CNS
NCI-H23 lung = test system: NCI-H23 lung
SK-MEL-2 melanoma = test system: SK-MEL-2 melanoma
U251 CNS = test system: U251 CNS
SN12C renal = test system: SN12C renal
COLO 205 colon = test system: COLO 205 colon
NCI-H522 lung = test system: NCI-H522 lung
BT-549 breast = test system: BT-549 breast
SNB-75 CNS = test system: SNB-75 CNS

Row | Structure (SMILES) | TGI (SF-268 CNS) [µM] | TGI (SNB-19 CNS) [µM] | TGI (SF-295 CNS) [µM] | TGI (NCI-H23 lung) [µM] | TGI (SK-MEL-2 melanoma) [µM] | TGI (U251 CNS) [µM] | TGI (SN12C renal) [µM] | TGI (COLO 205 colon) [µM] | TGI (NCI-H522 lung) [µM] | TGI (BT-549 breast) [µM] | TGI (SNB-75 CNS) [µM] | GI50 (SF-295 CNS) [µM] | GI50 (NCI-H23 lung) [µM]
1 | CCOC(=O)CCc1ccc(NC(=O)/C=C/c2ccc([N+](=O)[O-])o2)cc1 | 7.63 | > 71.6 | 28.7 | 3.33 | 4.82 | 6.42 | 4.26 | 5.29 | 0.548 | 4.79 | 11.2 |  | 
2 | COC1(OC)C2C=CC1C([C@](C)(N)CO)C2 (stereo partly drawn) | > 100 | > 100 | > 100 | > 100 |  | > 100 | > 100 | > 100 | > 100 | > 100 | > 100 |  | 
3 | Oc1cccc2ccc(Br)nc12 | > 100 | > 100 | > 100 | > 100 |  | > 100 | > 100 | > 100 | > 100 | > 100 | > 100 |  | 
4 | COC(=O)[C@H](C)N(C)C(=O)[C@H](C)N1[C@@H](c2ccccc2)COC1(C)C | > 100 | > 100 | > 100 | > 100 | > 100 | > 100 |  | > 100 | > 100 | > 100 | > 100 |  | 
5 | CC12CCC(=O)[C@@]1(C)CCCC2O (stereo partly drawn) | > 100 | > 100 | > 100 | > 100 | > 100 | > 100 | > 100 | > 100 | > 100 | > 100 | > 100 |  | 
6 | COc1ccc(NC(/C(C(=O)C(=O)/C=C(\O)c2ccccc2)=C(\O)c2ccccc2)c2ccc(OC)cc2)cc1 (stereo not drawn) | > 100 | > 100 | > 100 | > 100 | 89 | > 100 | > 100 | > 100 | 50.5 | > 100 | 51.9 |  | 
7 | CC1=NNC(=O)C1C1C=C(c2c[nH]c3ccccc23)OC1=O (stereo not drawn) | > 100 | > 100 | > 100 | > 100 | > 100 | > 100 | > 100 | > 100 | > 100 | > 100 | > 100 |  | 
8 | COC(=O)/C(C#N)=C/c1cc(C(C)(C)C)c(O)c(C(C)(C)C)c1 | > 40.5 | > 100 | 6.74 | 12.5 | 4.92 | 11.5 | 8.17 | 2.78 | 5.52 | 14 | 17.1 |  | 
9 | Cc1ccc(CN2CCN(Cc3ccc(C)o3)C(C)C2)o1 (stereo not drawn) | > 100 | > 100 | > 100 | > 100 | > 100 | > 100 | > 100 | > 100 | > 100 | > 100 | > 100 |  | 
10 | O=Cc1ccc(-c2ccc(S(=O)(=O)O)cc2)o1 | > 100 | > 100 | > 100 | > 100 | > 100 | > 100 | > 100 | > 100 | > 100 | > 100 |  |  | 
11 | C1=Cc2cccc3occ(c23)C=C1 | > 100 | > 100 | > 100 | > 100 | > 100 | > 100 | > 100 | 90.7 | > 100 | > 100 |  |  | 
12 | Cc1ccc(O)c(C2=NNC(c3cccc(Cl)c3)C2)c1 (stereo not drawn) | > 100 | 55.8 | > 100 | > 100 | 94.1 | > 100 | > 100 | > 100 | 53.6 | > 100 |  |  | 
13 | O=C(NC(CCCCN1C(=O)c2ccccc2C1=O)P(=O)(Oc1ccccc1)Oc1ccccc1)OCc1ccccc1 (stereo not drawn) | > 100 | > 100 | > 100 | > 100 | > 100 | > 100 | > 100 | > 100 | > 100 | > 100 | > 100 |  | 
14 | Oc1ccc(/C=N/c2nccs2)c(O)c1 | > 100 | > 100 | > 100 | > 100 |  |  |  | 92.1 | > 100 | > 100 | > 100 |  | 
15 | Nn1c(CCCCCCCCc2n[nH]c(=S)n2N)n[nH]c1=S | > 100 | > 100 | > 100 | > 100 | > 100 | > 100 | > 100 | > 100 | > 100 | > 100 | > 100 |  | 
16 | CC(=O)N1N=C(c2ccc3ccccc3c2O)CC1c1ccc(N(C)C)cc1 (stereo not drawn) | > 100 |  | > 100 | > 100 | > 100 | > 100 | > 100 | > 100 | > 100 | > 100 | > 100 |  | 
17 | O=C1c2c(O)cccc2Cc2cc(CO)cc(O)c21 | 14.3 | 36.6 | 5.85 | 6.06 |  | 10.7 | 16.9 | 4.9 |  | 86 | 5.44 |  | 
18 | Cc1cnc2[nH]c(-c3ccc(Cl)cc3)cc(=O)c2c1 | > 100 | > 100 | 23 | > 100 | > 100 | > 32.4 | > 100 | > 100 | > 100 | > 100 | > 100 |  | 
19 | COC(=O)[C@@H]1[C@H]2CC[C@]3(C)[C@@H](OC(C)=O)CC[C@H]3[C@@H]2CC[C@H]1C(C)=O | > 100 | > 100 | > 100 | > 100 | > 100 | > 100 | > 100 | > 100 | > 100 | > 100 | > 100 |  | 
20 | C[C@H]1S[C@H](c2c(F)cccc2F)n2c1nc1ccccc12 | > 100 | > 100 | > 100 | > 100 | > 100 | > 100 | > 100 | > 100 |  | > 100 | > 100 |  | 
21 | O=C(CCN1CCCC1)c1ccc(Oc2ccc(F)cc2)cc1 | > 100 | > 100 | > 100 | > 100 | > 100 | > 100 | > 100 | 56.7 |  | > 100 | > 100 |  | 

Row | Structure (SMILES) | TGI (SF-268 CNS) [µM] | TGI (SNB-19 CNS) [µM] | TGI (SF-295 CNS) [µM] | TGI (NCI-H23 lung) [µM] | TGI (SK-MEL-2 melanoma) [µM] | TGI (U251 CNS) [µM] | TGI (SN12C renal) [µM] | TGI (COLO 205 colon) [µM] | TGI (NCI-H522 lung) [µM] | TGI (BT-549 breast) [µM] | TGI (SNB-75 CNS) [µM] | GI50 (SF-295 CNS) [µM] | GI50 (NCI-H23 lung) [µM]
22 | c1cc2c3ccsc3c3sccc3c2s1 | > 100 |  | > 100 | > 100 | > 100 | > 100 | > 100 | > 100 |  | > 100 | > 100 |  | 
23 | COc1ccc2[nH]c3c(O)c(-c4c(C)cc5c([nH]c6ccc(OC)cc65)c4O)c(C)cc3c2c1 | 8.06 | 8.72 | 8.86 | 8.38 | 10.7 | 7.98 | 8.17 |  | 9.2 | 8.2 | 7.18 | 5.11 | 4.48
24 | CCOc1nc2sc3c(c2c(=O)n1CCSSCCn1c(OCC)nc2sc4c(c2c1=O)CCCC4)CCCC3 | > 100 | > 100 | > 100 | > 100 | > 100 | > 100 | > 100 | > 100 |  | > 100 | > 100 |  | 
25 | COC1C(=O)N(SC)C1c1ccccc1Cl (stereo not drawn) | > 100 | > 100 | > 100 | > 100 | > 100 | > 100 | 47.3 | > 100 | 33.5 | 54.2 |  |  | 
26 | COc1cc(/C=N/n2c(C)n[nH]c2=O)cc(OC)c1OC | > 100 | > 100 | > 100 | > 100 | > 100 | > 100 | > 100 | > 100 |  | > 100 | > 100 |  | 
27 | CCOC(=O)c1csc(-c2cn(C)c3c2C(=O)C(OC)=CC3=O)n1 | > 100 | > 100 | 96.9 | > 56.7 | > 78 | > 100 | > 100 | > 89.6 | > 100 | > 100 | > 83.4 |  | 
28 | Cc1ccc(S(=O)(=O)NNC(=O)Nc2ccc([N+](=O)[O-])cc2)cc1 | > 100 | > 100 | > 100 | > 100 | > 100 | > 100 | > 100 | > 100 | > 100 | > 100 | > 100 |  | 
29 | COc1cc(C(=O)OC2CC34CCNC35CC(OC5(OC)C2O)c2cc3c(cc24)OCO3)ccc1O (stereo not drawn) | > 100 | > 100 | > 100 | > 100 | > 100 | > 100 | > 100 | > 100 | > 100 | > 100 | > 100 |  | 
30 | Cn1c(N)c(/C=C/C(=O)Oc2ccccc2)c(=O)n(C)c1=O | > 100 | > 100 | 93.6 | > 100 | > 100 | > 100 | > 100 | > 100 | > 100 | > 100 | 66.5 |  | 
31 | Cc1cc(S(=O)(=O)NC2=NCC(C)(C)CN2)c(S)cc1Cl | > 100 | > 100 |  |  | > 100 | 89 | > 100 | > 100 | 81.2 | > 100 | > 100 |  | 
32 | COc1cc(-c2ccccc2)cn2c1nc1ccccc12 | 79.4 | 69.3 |  | > 100 | 44 | 52.2 | 46.2 | 39.1 | 40.6 | 32.9 | 43.2 |  | 
33 | CN1CCN(Cc2ccccc2)CC1CC#N (stereo not drawn) | > 100 | > 100 | > 100 | > 100 |  | > 100 | > 100 | > 100 |  | > 100 | > 100 |  | 
34 | NC(=O)NC(=O)c1cccc(NC(=O)CCl)c1 | 8.29 | > 26.1 | 7.71 | 8.14 | 15.1 | 2.41 | 4.8 | 2.2 | 3.32 | 9.03 | 7.06 |  | 
35 | COc1cc(OC)nc(-n2c(N)c(C(=O)O)c3ccc([N+](=O)[O-])cc3c2=O)n1 | > 100 | > 100 | > 100 | > 100 | > 100 | > 100 | > 100 | > 100 | > 100 | > 100 | > 100 |  | 
36 | CN1N=C(c2ccccc2)c2cc(Cl)ccc2N=C1N/N=C/c1ccc(N(C)C)cc1 | > 100 | > 100 | > 100 | > 100 |  | > 100 | > 100 | > 100 | > 100 | > 100 | > 100 |  | 
37 | COc1ccc(C2=NN(C(=O)c3ccc(Cl)cc3)C(O)(c3cc(F)c(Cl)cc3Cl)C2)cc1 (stereo not drawn) | > 100 | > 100 | > 100 | > 100 | > 100 | > 100 | > 100 | > 100 | > 100 | > 100 | > 100 |  | 
38 | COC(=O)C1=COC2OC3CC1C2C(C)O3 (stereo not drawn) | > 100 | > 100 | > 100 | > 100 | > 100 | > 100 | > 100 | > 100 | > 100 | > 100 |  |  | 
39 | CCOC(=O)c1nc2cc(F)cc(F)c2[nH]c1=O | > 100 | > 100 | > 100 | > 100 | > 100 | > 100 | > 100 | > 100 |  | > 100 | > 100 |  | 
40 | COC(=O)c1cc2c(cc1C(=O)OC)[C@@]1(C)CCCC(C)(C)C1CC2 (stereo partly drawn) | 31.2 | 53.7 | 37 | > 100 | 46.7 | 40.4 | 35.2 |  | 41.5 | 85.9 | 82.1 |  | 
41 | O=C1NC(N2CCCCC2)=N/C1=C\c1ccco1 | > 100 | > 100 | > 100 | > 100 | > 100 | > 100 | > 100 | > 100 | > 100 | > 100 |  |  | 
42 | CC(C)CC1NC(=O)CCC(NC(=O)C(Cc2ccc(O)cc2)NC(=O)OCc2ccccc2)C(=O)NC(Cc2ccccc2)C(=O)NC(Cc2ccccc2)NC1=O (stereo not drawn) | > 100 | > 100 | > 100 | > 100 | > 100 | > 100 | > 100 | > 100 |  | > 100 | > 100 |  | 
